Assay results from patent US20090180956A1, “DIAGNOSTIC FOR EVALUATING GASTRIC EVACUATION FUNCTION AND/OR SMALL INTESTINAL ABSORPTION FUNCTION” (priority 2006, published 2009).
Read-outs that look alike come from different tables or passages of the source.

Experiments:
[1] = 2 mg/ml/kg into the duodenum
Description: Overnight-fasted Wistar male rats (8 week-old; Nippon Charles River) were subjected to a laparotomy under anesthesia and treated as follows: (1) ligated at 3 cm from the pylorus (n=1), (2) ligated at 6 cm from the pylorus (n=1), and (3) not ligated (no treatment) (n=2).
[1,4-^13C]-succinic acid (ICON) was administered into the duodenum upstream of the ligation at 2 mg/ml/kg. The breath after the administration was collected.
(§1) Briefly, the breath was collected at a rate of about 100 to 300 ml/min using a stroke pump (Variable Stroke Pump VS-500; Shibata Kagaku Kogyo), and the CO2 concentration therein was maintained at about 3%. A Perma Pure Drier (MD-050-12P; Perma Pure INC.) was set between the rat holder and the stroke pump to remove moisture from the breath. When the CO2 concentration was stabilized, the rat under anesthesia was subjected to a laparotomy. After ligation of the pylorus, [1,4-^13C]-succinic acid solution was injected into the duodenum with an injection syringe (1 ml) to thereby achieve administration into the duodenum. A breath sample ([…]) collected with the syringe was sealed in a vacuum vial (10 ml) and subjected to automated analysis by GC-MS (Breath MAT) [FinniganMAT]. Δ^13C (‰) was calculated from δ^13C values which are ^13C values of the breath sample (i.e. differences from the standard substance PDB) using the following formula.
Δ^13C (‰)=(δ^13C)t min−(δ^13 C) 0 min (Formula 1)
• Apparatus: Breath MAT plus (Finnigan) • Carrier gas: He • Measured ions: m/z=44, 45, 46

[2] = 2 mg/ml/kg into the duodenum; remark: listed apart in the source
Description: as §1
Falling out of small intestinal villi was induced in Wistar male rats (9 week-old; n=4; Nippon Charles River) by repeatedly injecting injectable methotrexate (MTX; Takeda Chemical Industries) dissolved in physiological saline between the back and the skull subcutaneously at 2.5 mg/kg/day (see J. Nutr. Vol. 126, p. 2519 (1996); Scand. J. Gastroenterol. Vol. 39 p. 1015 (2004)). The conditions of the repeated administration were 3 day administration, 2 day interval and 3 day administration (total administration period: 6 days) (MTX administration group; n=4). Non-administration group (n=2) was also tested as control group.
On day 9 after the start of MTX administration, [1,4-^13C]-succinic acid (ICON) was administered into the duodenum of overnight-fasted rats under anesthesia at 2 mg/ml/kg to perform a breath test.

[3] = 4 mg/ml/kg femoral vein
Description: (§2) Briefly, STZ was administered to 2-day postnatal rats subcutaneously at a dose of 90 mg/kg. STZ was dissolved in citrate buffer (pH 4.5) in advance, and administration was completed within 5 minutes after the dissolving. Two days thereafter, a blood sample was collected from the heart and subjected to measurement of casual plasma glucose with Terumo Mediace (blood glucose measuring set). Individuals showing a level of 275 mg/dl or more were selected.
(§3) The time course of the increase ratio of ^13C concentration (Δ^13C (‰)) in exhaled CO2 after administration was examined for 20 minutes, and plotted every 5 minutes.

[4] = 13C-labeled sodium acetate breath test, diabetic model rats (nSTZ group) versus control group; settings: 10 mg/ml/kg femoral vein
Description: as §2, §3

[5] = rat, in vivo, 2000 mg/kg; cited from earlier work

O=[13C](O)CC[13C](=O)O [[1,4-^13C]-succinic acid]
increase ratio of 13C concentration (Δ13C) in exhaled CO2 ([1]; not ligated rats, at 6 minutes): 130 ‰ | increase ratio of 13C concentration (Δ13C) in exhaled CO2 ([1]; not ligated rats, at 15 minutes): 95 ‰ | increase ratio of 13C concentration (Δ13C) in exhaled CO2 ([1]; rat ligated at 3 cm from the pylorus, at 4 minutes): 14 ‰ | increase ratio of 13C concentration (Δ13C) in exhaled CO2 ([1]; rat ligated at 3 cm from the pylorus, at 6 minutes): 30 ‰ | increase ratio of 13C concentration (Δ13C) in exhaled CO2 ([1]; rat ligated at 3 cm from the pylorus, at 16 minutes): 71 ‰ | increase ratio of 13C concentration (Δ13C) in exhaled CO2 ([1]; rat ligated at 6 cm from the pylorus, at 4 minutes): 33 ‰ | increase ratio of 13C concentration (Δ13C) in exhaled CO2 ([1]; rat ligated at 6 cm from the pylorus, at 6 minutes): 57 ‰ | increase ratio of 13C concentration (Δ13C) in exhaled CO2 ([1]; rat ligated at 6 cm from the pylorus, at 16 minutes): 96 ‰ | increase ratio of 13C concentration (Δ13C) in exhaled CO2 ([2]; MTX administration group, at 15 minutes): 68±37 ‰ | increase ratio of 13C concentration (Δ13C) in exhaled CO2 ([2]; control group (MTX non-administration), at 10 minutes): 154 ‰ | increase ratio of 13C concentration (Δ13C) in exhaled CO2 ([2]; control group (MTX non-administration), at 20 minutes): 81 ‰ | difference in Δ13C between control group and nSTZ group ([3]; 20 minutes breath test): no difference was observed | increase ratio of 13C concentration (Δ13C) in exhaled CO2 ([3]; control group, at 5 minutes): 193±20 ‰ | increase ratio of 13C concentration (Δ13C) in exhaled CO2 ([3]; control group, at 20 minutes): 99±4 ‰ | increase ratio of 13C concentration (Δ13C) in exhaled CO2 ([3]; nSTZ group, at 5 minutes): 202±28 ‰ | increase ratio of 13C concentration (Δ13C) in exhaled CO2 ([3]; nSTZ group, at 20 minutes): 93±4 ‰

C[13C](=O)[O-].[Na+] [[1-^13C]-sodium acetate]
increase ratio of 13C concentration (Δ13C) in exhaled CO2 ([4]; control group, at 5 minutes): 154±11 ‰ | increase ratio of 13C concentration (Δ13C) in exhaled CO2 ([4]; control group, at 20 minutes): 153±5 ‰ | increase ratio of 13C concentration (Δ13C) in exhaled CO2 ([4]; nSTZ group, at 5 minutes): 214±30 ‰ | increase ratio of 13C concentration (Δ13C) in exhaled CO2 ([4]; nSTZ group, at 20 minutes): 133±2 ‰ | difference in Δ13C between control group and nSTZ group ([4]; values at 5 minutes and at 20 minutes): Significant difference (p<0.005)

O=C(O)CCC(=O)O [disodium succinate hexahydrate]
abnormalities in single administration toxicity test [5]: does not cause abnormalities
